ChEMBL document CHEMBL2424576, “Chiral N-benzyl-N-methyl-1-(naphthalen-1-yl)ethanamines and their in vitro antifungal activity against Cryptococcus neoformans, Trichophyton mentagrophytes and Trichophyton rubrum” (2013)
Converted amounts (≈) assume the structure as drawn.

Legend:
Format in all cases: functional
[1] = test system: Cryptococcus neoformans; assay: Antifungal activity against Cryptococcus neoformans assessed as fungal growth at 0.125 ug/ml after 72 hrs by broth microdilution method
[2] = test system: Trichophyton rubrum; assay: Antifungal activity against Trichophyton rubrum after 7 days by broth microdilution method; settings: 168 h
[3] = test system: Trichophyton mentagrophytes; assay: Antifungal activity against Trichophyton mentagrophytes after 7 days by broth microdilution method; settings: 168 h
[4] = test system: Cryptococcus neoformans; assay: Antifungal activity against Cryptococcus neoformans after 72 hrs by broth microdilution method
[5] = test system: Trichophyton rubrum; assay: Antifungal activity against Trichophyton rubrum assessed as fungal growth at 0.25 ug/ml after 7 days by broth microdilution method
[6] = test system: Trichophyton mentagrophytes; assay: Antifungal activity against Trichophyton mentagrophytes assessed as fungal growth at 0.25 ug/ml after 7 days by broth microdilution method

Row | SMILES | MIC50 [2] | MIC80 [2] | MIC50 [3] | MIC80 [3] | MIC80 [4] | MIC50 [4] | Activity [1] | Activity [5] | Activity [6]
1 | C[C@@H](c1cccc2ccccc12)N(C)Cc1ccc(C(C)(C)C)cc1 | – | – | – | – | 2 µg/mL (≈ 6.03 µM) | 1 µg/mL (≈ 3.02 µM) | – | – | –
2 | Cc1ccc(CN(C)[C@H](C)c2cccc3ccccc23)cc1 | 0.25 µg/mL (≈ 0.864 µM) | 0.5 µg/mL (≈ 1.73 µM) | 0.25 µg/mL (≈ 0.864 µM) | 0.5 µg/mL (≈ 1.73 µM) | 1 µg/mL (≈ 3.46 µM) | 0.5 µg/mL (≈ 1.73 µM) | – | – | –
3 | C[C@H](c1cccc2ccccc12)N(C)Cc1ccc(Br)cc1 | 0.125 µg/mL (≈ 0.353 µM) | 0.25 µg/mL (≈ 0.706 µM) | 0.25 µg/mL (≈ 0.706 µM) | 0.5 µg/mL (≈ 1.41 µM) | 1 µg/mL (≈ 2.82 µM) | 0.5 µg/mL (≈ 1.41 µM) | – | – | –
4 | C[C@H](c1cccc2ccccc12)N(C)Cc1ccc([Si](C)(C)C)cc1 | – | 0.5 µg/mL (≈ 1.44 µM) | – | 0.5 µg/mL (≈ 1.44 µM) | 1 µg/mL (≈ 2.88 µM) | 0.5 µg/mL (≈ 1.44 µM) | – | >50% | >50%
5 | C[C@H](c1cccc2ccccc12)N(C)Cc1ccc(OCc2ccccc2)cc1 | 0.125 µg/mL (≈ 0.328 µM) | 0.25 µg/mL (≈ 0.655 µM) | 0.125 µg/mL (≈ 0.328 µM) | 0.25 µg/mL (≈ 0.655 µM) | 1 µg/mL (≈ 2.62 µM) | 0.5 µg/mL (≈ 1.31 µM) | – | – | –
6 | C[C@H](c1cccc2ccccc12)N(C)Cc1ccc(-c2ccccc2)cc1 | – | – | – | – | > 32 µg/mL | > 16 µg/mL | – | – | –
7 | C[C@H](c1cccc2ccccc12)N(C)Cc1ccccc1F | – | – | – | – | > 32 µg/mL | > 32 µg/mL | – | – | –
8 | C[C@H](c1cccc2ccccc12)N(C)Cc1ccccc1Br | – | – | – | – | > 32 µg/mL | > 32 µg/mL | – | – | –
9 | C[C@H](c1cccc2ccccc12)N(C)Cc1ccccc1-c1ccccc1 | – | – | – | – | > 32 µg/mL | > 32 µg/mL | – | – | –
10 | C[C@H](c1cccc2ccccc12)N(C)Cc1cccc(Br)c1 | 1 µg/mL (≈ 2.82 µM) | 2 µg/mL (≈ 5.65 µM) | 2 µg/mL (≈ 5.65 µM) | 4 µg/mL (≈ 11.3 µM) | 8 µg/mL (≈ 22.6 µM) | 4 µg/mL (≈ 11.3 µM) | – | – | –
11 | C[C@H](c1cccc2ccccc12)N(C)Cc1cc(C(F)(F)F)cc(C(F)(F)F)c1 | – | – | – | – | > 32 µg/mL | > 32 µg/mL | – | – | –
12 | C[C@H](c1cccc2ccccc12)N(C)Cc1cc(C(C)(C)C)cc(C(C)(C)C)c1 | – | – | – | – | > 32 µg/mL | 32 µg/mL (≈ 82.6 µM) | – | – | –
13 | C[C@H](c1cccc2ccccc12)N(C)Cc1ccncc1 | – | – | – | – | > 32 µg/mL | 16 µg/mL (≈ 57.9 µM) | – | – | –
14 | C[C@H](c1cccc2ccccc12)N(C)Cc1cccnc1 | – | – | – | – | > 32 µg/mL | > 32 µg/mL | – | – | –
15 | C[C@@H](c1ccc(C(C)(C)C)cc1)N(C)Cc1cccc2ccccc12 | 0.5 µg/mL (≈ 1.51 µM) | 1 µg/mL (≈ 3.02 µM) | 0.5 µg/mL (≈ 1.51 µM) | 1 µg/mL (≈ 3.02 µM) | 4 µg/mL (≈ 12.1 µM) | 2 µg/mL (≈ 6.03 µM) | – | – | –
16 | C[C@H](c1ccc(C(C)(C)C)cc1)N(C)Cc1cccc2ccccc12 | > 32 µg/mL | > 32 µg/mL | > 32 µg/mL | > 32 µg/mL | > 32 µg/mL | > 32 µg/mL | – | – | –
17 | CC(C)(C)c1ccc([C@H](CF)NCc2cccc3ccccc23)cc1 | 2 µg/mL (≈ 5.96 µM) | 4 µg/mL (≈ 11.9 µM) | 2 µg/mL (≈ 5.96 µM) | 4 µg/mL (≈ 11.9 µM) | > 32 µg/mL | > 32 µg/mL | – | – | –
18 | CC(C)(C)c1ccc([C@@H](CF)NCc2cccc3ccccc23)cc1 | > 32 µg/mL | > 32 µg/mL | > 32 µg/mL | > 32 µg/mL | > 32 µg/mL | > 32 µg/mL | – | – | –
19 | CN(Cc1cccc2ccccc12)[C@@H](CF)c1ccc(C(C)(C)C)cc1 | > 32 µg/mL | > 32 µg/mL | > 32 µg/mL | > 32 µg/mL | > 32 µg/mL | > 32 µg/mL | – | – | –
20 | CN(Cc1cccc2ccccc12)[C@H](CF)c1ccc(C(C)(C)C)cc1 | > 32 µg/mL | > 32 µg/mL | > 32 µg/mL | > 32 µg/mL | > 32 µg/mL | > 32 µg/mL | – | – | –
21 | C[C@H](c1cccc2ccccc12)N(C)Cc1ccc(F)cc1 | – | – | – | – | 8 µg/mL (≈ 27.3 µM) | 4 µg/mL (≈ 13.6 µM) | – | – | –
22 | CN(Cc1ccc(C(C)(C)C)cc1)Cc1cccc2ccccc12 [BUTENAFINE] | 0.03 µg/mL (≈ 0.0945 µM) | 0.06 µg/mL (≈ 0.189 µM) | 0.06 µg/mL (≈ 0.189 µM) | 0.125 µg/mL (≈ 0.394 µM) | 1 µg/mL (≈ 3.15 µM) | 0.5 µg/mL (≈ 1.57 µM) | – | – | –

More lines, main results first:

Row | MIC50 [2] | MIC80 [2] | MIC50 [3] | MIC80 [3] | MIC80 [4] | MIC50 [4] | SMILES | Activity [1] | Activity [5] | Activity [6]
23 | 0.06 µg/mL (≈ 0.181 µM) | 0.125 µg/mL (≈ 0.377 µM) | 0.06 µg/mL (≈ 0.181 µM) | 0.125 µg/mL (≈ 0.377 µM) | 0.25 µg/mL (≈ 0.754 µM) | – | C[C@H](c1cccc2ccccc12)N(C)Cc1ccc(C(C)(C)C)cc1 | >50% | – | –
24 | – | – | – | – | > 16 µg/mL | 16 µg/mL (≈ 58.1 µM) | C[C@H](c1cccc2ccccc12)N(C)Cc1ccccc1 | – | – | –
25 | 1 µg/mL (≈ 3.27 µM) | 2 µg/mL (≈ 6.55 µM) | 1 µg/mL (≈ 3.27 µM) | 2 µg/mL (≈ 6.55 µM) | 4 µg/mL (≈ 13.1 µM) | 2 µg/mL (≈ 6.55 µM) | COc1ccc(CN(C)[C@H](C)c2cccc3ccccc23)cc1 | – | – | –
26 | 0.25 µg/mL (≈ 0.78 µM) | 0.5 µg/mL (≈ 1.56 µM) | 1 µg/mL (≈ 3.12 µM) | 2 µg/mL (≈ 6.24 µM) | > 16 µg/mL | 2 µg/mL (≈ 6.24 µM) | C[C@H](c1cccc2ccccc12)N(C)Cc1ccc([N+](=O)[O-])cc1 | – | – | –
27 | 0.25 µg/mL (≈ 0.728 µM) | 0.5 µg/mL (≈ 1.46 µM) | 0.25 µg/mL (≈ 0.728 µM) | 0.5 µg/mL (≈ 1.46 µM) | 1 µg/mL (≈ 2.91 µM) | 0.5 µg/mL (≈ 1.46 µM) | C[C@H](c1cccc2ccccc12)N(C)Cc1ccc(C(F)(F)F)cc1 | – | – | –
28 | 0.5 µg/mL (≈ 1.39 µM) | 1 µg/mL (≈ 2.78 µM) | – | 0.5 µg/mL (≈ 1.39 µM) | 4 µg/mL (≈ 11.1 µM) | 2 µg/mL (≈ 5.56 µM) | C[C@H](c1cccc2ccccc12)N(C)Cc1ccc(OC(F)(F)F)cc1 | – | – | >50%
29 | – | – | – | – | > 32 µg/mL | > 32 µg/mL | C[C@H](c1cccc2ccccc12)N(C)Cc1ccccc1C(F)(F)F | – | – | –
30 | 2 µg/mL (≈ 5.82 µM) | 4 µg/mL (≈ 11.6 µM) | 4 µg/mL (≈ 11.6 µM) | > 32 µg/mL | 8 µg/mL (≈ 23.3 µM) | 4 µg/mL (≈ 11.6 µM) | C[C@H](c1cccc2ccccc12)N(C)Cc1cccc(C(F)(F)F)c1 | – | – | –
31 | > 32 µg/mL | > 32 µg/mL | > 32 µg/mL | > 32 µg/mL | 32 µg/mL (≈ 89 µM) | 1 µg/mL (≈ 2.78 µM) | Cc1cc(C(C)(C)C)cc(C)c1CN(C)[C@H](C)c1cccc2ccccc12 | – | – | –
32 | – | – | – | – | > 32 µg/mL | > 32 µg/mL | C[C@H](c1cccc2ccccc12)N(C)Cc1ccccn1 | – | – | –
33 | > 0.25 µg/mL | < 0.5 µg/mL | 0.5 µg/mL (≈ 0.541 µM) | < 1 µg/mL | < 0.5 µg/mL | 0.25 µg/mL (≈ 0.271 µM) | C[C@@H]1[C@H](O)[C@@H](C)/C=C/C=C/C=C/C=C/C=C/C=C/C=C/[C@H](O[C@@H]2O[C@H](C)[C@@H](O)[C@H](N)[C@@H]2O)C[C@@H]2O[C@](O)(C[C@@H](O)C[C@@H](O)[C@H](O)CC[C@@H](O)C[C@@H](O)CC(=O)O[C@H]1C)C[C@H](O)[C@H]2C(=O)O [AMPHOTERICIN B] | – | – | –
